A word on the MIC: it is the lowest concentration that inhibits growth of the organism. Lower therefore signals inhibition by little substance.

This passage reports MIC results from ChEMBL document CHEMBL1132978, “Artificial neural network applied to prediction of fluorquinolone antibacterial activity by topological methods” (2000).

The assay relates to Escherichia coli. Description: Minimum inhibitory concentration against Escherichia coli. The class given is functional.

Each structure is given as a SMILES string. Values after ≈ are worked out from the molar mass of the structure shown.

The compound `CC(C)(C)n1cc(C(=O)O)c(=O)c2cc(F)c(N3CCC(N)C3)cc21` (centres undefined) yielded a minimal inhibitory concentration (MIC) of 0.2 µg/mL (≈ 0.576 µM).
The value for `CCn1cc(C(=O)O)c(=O)c2cc(F)c(N3CC(C)NC(C)C3)cc21` (centres undefined) was 0.4 µg/mL (≈ 1.15 µM).
As for `COc1c(N2CCC(CN)CC2)c(F)cc2c(=O)c(C(=O)O)cn(C3CC3)c12`, the MIC is 0.1 µg/mL (≈ 0.257 µM).
The same measure for `NCC1CCN(c2nc3c(cc2F)c(=O)c(C(=O)O)cn3-c2ccc(F)cc2F)C1` (centres undefined): 0.05 µg/mL (≈ 0.12 µM); for `CC(C)(C)n1cc(C(=O)O)c(=O)c2cc(F)c(N3CCNCC3)cc21`: 0.2 µg/mL (≈ 0.576 µM); for `CNCC1CCN(c2cc3c(cc2F)c(=O)c(C(=O)O)cn3C(C)C)C1` (centres undefined): 3.1 µg/mL (≈ 8.58 µM).
As to `CCCCN1CCN(c2cc3c(cc2F)c(=O)c(C(=O)O)cn3C2CC2)CC1`, the minimum inhibitory concentration (MIC) was 0.1 µg/mL (≈ 0.258 µM).
The compound `CCOc1c(N2CCC(N)C2)c(F)c(N)c2c(=O)c(C(=O)O)cn(C3CC3)c12` (centres undefined) registered an MIC of 0.05 µg/mL (≈ 0.128 µM).
The compound `CCC1CN(c2cc3c(cc2F)c(=O)c(C(=O)O)cn3C2CC2)CCN1` (centres undefined) displayed an MIC of 0.1 µg/mL (≈ 0.278 µM).
The same measure for `CCNCC1CCN(c2c(F)cc3c(=O)c(C(=O)O)cn(C4CC4)c3c2OCC)CC1`: 0.8 µg/mL (≈ 1.85 µM).
Take `NCC1CCCN(c2cc3c(cc2F)c(=O)c(C(=O)O)cn3C2CC2)C1` (centres undefined): 0.4 µg/mL (≈ 1.11 µM) was the least that counted as inhibitory (MIC).
Take `COc1c(N2CCCC(CN)C2)c(F)c(N)c2c(=O)c(C(=O)O)cn(C3CC3)c12` (centres undefined): the lowest concentration to inhibit growth (MIC) was 0.1 µg/mL (≈ 0.247 µM).
In the case of `CCOc1c(N2CCCC(N)C2)c(F)cc2c(=O)c(C(=O)O)cn(C3CC3)c12` (centres undefined), the minimum inhibitory concentration (MIC) was found to be 0.2 µg/mL (≈ 0.514 µM).
The same measure for `CNCC1CCN(c2c(F)c(N)c3c(=O)c(C(=O)O)cn(C4CC4)c3c2F)C1` (centres undefined): 0.025 µg/mL (≈ 0.0637 µM).
The same measure for `CC(C)NCC1CCN(c2cc3c(cc2F)c(=O)c(C(=O)O)cn3C2CC2)C1` (centres undefined): 0.4 µg/mL (≈ 1.03 µM).
On to `COc1c(N2CCC(C)(CN)C2)c(F)cc2c(=O)c(C(=O)O)cn(C3CC3)c12` (centres undefined), for which it took 0.1 µg/mL (≈ 0.257 µM) to inhibit growth (MIC).
In the case of `CC(C)N1CCN(c2cc3c(cc2F)c(=O)c(C(=O)O)cn3-c2ccc(F)cc2F)CC1`, the lowest concentration to inhibit growth (MIC) was 0.8 µg/mL (≈ 1.8 µM).
In the case of `CCn1cc(C(=O)O)c(=O)c2cc(F)c(N3CCC(CN)C3)c(F)c21` (centres undefined), the MIC worked out at 0.1 µg/mL (≈ 0.285 µM).
The value for `CCN1CCN(c2cc3c(cc2F)c(=O)c(C(=O)O)cn3C2CC2)CC1` [ENROFLOXACIN] was 0.05 µg/mL (≈ 0.139 µM).
